“Also recorded” adds a separate entry of the source.
Columns and labels:
PDE1B = tested on: PDE1B; design: method as in PMID 31899535; conditions: cited from earlier work
PDE4D = tested on: PDE4D; design: method as in PMID 31899535; conditions: in vitro assay at concentrations up to 200 µM; cited from earlier work
PDE4B = test: in vitro PDE4B inhibition assay; format: biochemical; conditions: ratio of IC50 values
TNF-α production = tested on: TNF-α production; design: method as in PMID 31899535; conditions: rat lipopolysaccharide-induced endotoxemia, PK/PD model; cited from earlier work
[1] = design: method as in PMID 31899535; conditions: cited from earlier work
ConA-induced hepatitis = test: Preliminary pharmacological evaluation in ConA-induced hepatitis; format: in vivo, BALB/c mice; conditions: 8 h after ConA 20 mg/kg IV; IP pretreatment: rolipram 10, BRL-50481 50, GRMS-55 50 mg/kg; vs vehicle control
Procedure: ConA was dissolved in sterile saline (2 mg·mL^−1). The studied compounds (GRMS-55, rolipram, and BRL-50481) were dissolved in a mixture of DMSO, PEG 400, and water for injection at a ratio of 25:25:50 (v/v/v). Mice were given an IP injection of the investigated compounds or the corresponding volume of vehicle alone and, thirty minutes later, intravenously (IV) administered with ConA solution. An additional control group received vehicle alone IP instead of the studied compounds followed by IV injection of sterile saline. ConA was given at a dose of 20 mg·kg^−1. Mice were exsanguinated at several time points post-ConA injection. Blood samples were allowed to clot for 0.5 h at room temperature and then centrifuged at 3000× g for 10 min to obtain the serum, which was stored at −20 °C until further analysis.
The influence of PDE inhibitors on the levels of inflammatory mediators and transaminases in ConA-treated mice was investigated in two separate experiments. In the preliminary study, the animals were pretreated IP with GRMS-55 at a dose of 50 mg·kg^−1, the PDE4-selective inhibitor rolipram at a dose of 10 mg·kg^−1, or the PDE7-selective inhibitor BRL-50481 at a dose of 50 mg·kg^−1. Doses of the investigated compounds were chosen based on the results of previous studies. Subsequently, mice were given an IV injection of ConA and sacrificed at 8 h following mitogen dosing. The levels of TNF-α, IL-6, and IFN-γ and the activities of ALT and AST in the mouse serum were measured. This preliminary experiment allowed comparing the activity of the studied PDE inhibitors in this AIH model and helped to select the doses of GRMS-55 for a subsequent pharmacodynamic study. In the final pharmacodynamic experiment, GRMS-55 was administered at two dose levels (50 and 100 mg·kg^−1) followed by ConA administration at a dose of 20 mg·kg^−1. Animals were sacrificed at various time points post-ConA dosing (1, 2, 4, 8 and 24 h). The levels of TNF-α, IL-1β, IL-4, IL-6, IL-10, IL-12, IL-17A, and IFN-γ were measured using a multiplex Luminex assay. In addition, the activities of ALT and AST in the mouse serum were assessed. The concentration–time profiles of the selected biomarkers obtained in this experiment combined with the results of pharmacokinetic analysis allowed the development of a semi-mechanistic PK/PD/disease progression model and the investigation of concentration–effect relationships of GRMS-55.
The serum samples from the preliminary pharmacological study were analyzed using ELISA tests according to the protocols provided by the manufacturers. The TNF-α concentrations were measured using the Mouse TNF-α Quantikine ELISA Kit (R&D Systems, Minneapolis, MN, USA), while the concentrations of IL-6 and IFN-gamma were quantified by ELISA kits manufactured by Cloud-Clone Corp. (Houston, TX, USA). The absorbance of samples was measured on a POLARstar Omega multi-mode microplate reader (BMG LABTECH, Ortenberg, Germany) set at 450 nm wavelength. TNF-α, IL-1β, IL-6, IL-4, IL-10, IL-12, IL-17A, and IFN-γ serum levels in samples from pharmacodynamic experiment were determined by a premixed Magnetic Luminex Assay (R&D Systems, Inc., Minneapolis, MN, USA) according to the manufacturer’s protocol. Serum AST and ALT activities were quantified on a chemistry analyzer BS-800 (Shenzhen Mindray Bio-medical Electronics Co., Ltd., Shenzhen, China).

[2] = Stability in serum samples and stock solutions (bioanalytical validation); format: physicochemical, mouse
Procedure: To analyze GRMS-55 concentrations in the mouse serum, we used the previously developed HPLC method with UV detection. A detailed description of this method was published in a supplementary material of our previous publication. Briefly, 10 μL of 4-(8-((furan-2-ylmethyl)amino)-1,3-dimethyl-2,6-dioxo-1,2,3,6-tetrahydro-7H-purin-7-yl)-N′-(2-hydroxybenzylidene)butanehydrazide solution as internal standard (IS) was added to tubes containing 100 μL of the analyzed serum. The samples were mixed with 20 μL of 1 M hydrochloric acid solution, subjected to extraction with 1 mL of dichloromethane, and centrifuged at 10,000× g for 8 min. The organic layers were transferred to new tubes and evaporated with nitrogen at 37 °C. Dry residues were then dissolved in 100 μL of mobile phase and transferred to glass vial inserts for HPLC analysis (LaChrom Elite, Merck-Hitachi, Darmstadt, Germany). […] Within runs and between runs, precision and accuracy met the acceptance criteria, i.e., they were less than 15% expressed as coefficients of variation % (CVs%) or ±15% of the nominal concentrations, respectively, for all quality control levels. Recoveries of the analyzed compound and IS assessed by comparing the peak areas of extracted samples with corresponding extracts of blanks spiked with the analyte post-extraction ranged from 94% to 98%. The lower limit of quantification was 0.05 mg·L^−1. […]

stability in serum samples, time stable ([2]; room temperature): at least 12 h
stability in serum samples, time stable ([2]; –20 °C): 12 months
SMILES: Cn1c(=O)c2c(nc(NCCc3ccccc3)n2CCCC(=O)NN=Cc2ccccc2O)n(C)c1=O [GRMS-55, 4-(1,3-dimethyl-2,6-dioxo-8-(phenethylamino)-1,2,3,6-tetrahydro-7H-purin-7-yl)-N′-(2-hydroxybenzylidene)butanehydrazide]
potency of PDE1B suppression (PDE1B): high
PDE4D inhibition (PDE4D): not found to inhibit; also recorded: not active
times weaker inhibitor of PDE4B than rolipram (PDE4B): 24.5
IC50, suppression of TNF-α production (TNF-α production): 1.06 µg/mL
apparent volume of distribution at steady state ([1]; male Wistar rats): ~7 L/kg
half-life ([1]; male and female rats): approximately 20 min
effect on serum IL-6 concentration (ConA-induced hepatitis): decreased
